Patent US20140228407A1, “TETRA-PYRIDINE COMPOUNDS AND COMPOSITION FOR PROTECTING CELLS, TISSUES AND ORGANS AGAINST ISCHEMIA-REPERFUSION INJURY” (YISSUM RESEARCH DEVELOPMENT COMPANY OF THE HEBREW …, priority 2011, published 2014)
“Also recorded” adds a separate entry of the source. Marks after values point to notes of the source that are not given here.

Assays:
Assay type in all cases: in vivo
[1] = test system: model of ischemia/reperfusion in the CD rat; assay: Rat model of ischemia/reperfusion, infarct analysis (Phase B); details: for Infarct/AAR (%) Mean: 4 hour reperfusion; for Infarct/AAR (%) Mean / Infarct/LV (%) Mean: rat
Procedure: (§1) This study was conducted to evaluate the effects of the Compound #6 on cardiac function, infarct size, and Troponin I levels in a model of ischemia/reperfusion in the CD® (CR1CD® (SD)) rat. Phase A was conducted for toxicity evaluation purposes. In Phase B (the efficacy phase), two treatment groups of eight male rats were administered Compound #6 at dose levels of 0.2 and 2 mg/kg via intravenous infusion following myocardial infarction. The 2 mg/kg dose of Compound #6 was administered intravenously via a slow infusion starting 3 to 14 minutes prior to reperfusion and continuing for 20 minutes to 20 minutes and 32 seconds, which was approximately 6 to 17 minutes after reperfusion (depending on the infusion start time). The 0.2 mg/kg dose of Compound #6 was administered intravenously via a slow infusion starting 10 minutes prior to reperfusion and continuing for 30 minutes to 30 minutes and 30 seconds, which was approximately 20 minutes after reperfusion.
The animals were placed on mechanical ventilation and […]. Once anesthetized, the animal was placed in a right lateral recumbency, an arterial catheter or polyethylene tube was placed in the carotid artery for monitoring blood pressure and a thoracotomy was performed. The left coronary artery (LCA) was identified. A ligature was placed around the LCA and the vessel was ligated. The LCA was maintained occluded for 29 to 43 minutes. Occlusion of the vessel was verified via blanching of the heart and via ST interval changes. At the end of the occlusion period, the knot was loosened leaving the ligature in place, and the vessel was allowed to reperfuse for 3 hours 27 minutes to 4 hours 51 minutes. Following infarct, a chest tube was placed, the deep and superficial muscle layers were sutured at the surgical incision, and the skin was closed with staples. The chest tube was removed after spontaneous respiration was established. In Phase A, the animals were recovered from anesthesia and evaluated for 4 days. In Phase B, animals were maintained under anesthesia for 3 hours 27 minutes to 4 hours 51 minutes prior to being submitted to necropsy.
(§2) In Phase B, Compound #6 was administered once on Day 0 via intravenous infusion at dose levels of 0.2 and 2 mg/kg. The doses were administered at a dose volume of 1 mL/kg (0.05 [2 mg/kg] or 0.033 [0.2 mg/kg] mL/kg/minute). Two control groups received the vehicle (saline) or the vehicle for Compound #6 (10% (w/v) 2-hydroxypropyl-beta-cyclodextrin and 100 mM sodium chloride in deionized water) in the same manner as the 2 mg/kg treated group. The vehicles and 2 mg/kg Compound #6 were administered intravenously via a slow infusion starting 3 to 14 minutes prior to reperfusion and continuing for 20 minutes to 20 minutes and 32 seconds, which was approximately 6 to 17 minutes after reperfusion (depending on the infusion start time). The 0.2 mg/kg Compound #6 was administered intravenously via a slow infusion starting 10 minutes prior to reperfusion and continuing for 30 minutes to 30 minutes and 30 seconds, which was approximately 20 minutes after reperfusion. The positive control article, Erythropoietin, was administered at 5000 IU/kg via a bolus intravenous injection. The positive control article dose was administered at a dose volume of 2.5 mL/kg. The positive control was administered via a 3 to 60 second injection at 5 minutes prior to reperfusion.
After LAD reperfusion (4 hours), the animals were euthanized by an intraperitoneal injection of sodium pentobarbital followed by exsanguination via severing the abdominal vena cava. The heart was flushed with heparinized Lactated Ringers Solution (LRS) until clear of blood and the LAD was tied off using the same ligature used to occlude the vessel and Evan Blue dye was injected. The heart was weighed and breadloafed (4-5 sections per animal). […]

[2] = test system: model of ischemia/reperfusion in the CD rat; assay: Rat model of ischemia/reperfusion, cardiovascular monitoring (blood pressure, heart rate; Phase B)
Procedure: The animals in Phase B were monitored for selected cardiovascular endpoints from at least 15 minutes prior to acute myocardial infarction until at approximately 1 hour post reperfusion. Blood samples for the evaluation of Troponin I were collected from all surviving Phase B animals prior to coronary artery occlusion and at termination. At study termination, the Phase B animals were submitted to necropsy for limited necropsy examinations and infarct analysis.
as §2
In Phase B, animals were anesthetized for monitoring of selected cardiovascular parameters. For experimentation, the blood pressure catheter implanted in the carotid artery was attached to an external transducer and data acquisition was started. Blood pressure (systolic, diastolic, and mean arterial) and heart rate (derived from blood pressure) were monitored from at least 15 minutes prior to acute myocardial infarction (AMI) until at least 1 hour after reperfusion. Individual animal cardiovascular data tables are not reported but are maintained in the study file.

[3] = test system: model of ischemia/reperfusion in the CD rat; assay: Rat model of ischemia/reperfusion, cardiac Troponin I concentration (Phase B); details: 0.2 and 2.0 mg/kg; prior to termination; not statistically different
Procedure: as §1
The animals in Phase B were monitored for selected cardiovascular endpoints from at least 15 minutes prior to acute myocardial infarction until at approximately 1 hour post reperfusion. […]
In Phase B, cardiac troponin I evaluations were conducted at 3 to 54 minutes prior to coronary artery occlusion and prior to termination on all animals. […] The samples were stored frozen at −50 to −90° C. until analyzed.

## Cc1ccc(CN(CCN(Cc2ccc(C)cn2)Cc2ccc(C)cn2)Cc2ccc(C)cn2)nc1 [Compound #6]
[1]; 0.2 mg/kg intravenous infusion
  Infarct/AAR (%) Mean: 22.2±5.24%
  Infarct/LV (%) Mean: 7%
[1]; 0.2 mg/kg intravenous infusion, listed as Comp #6
  Infarct/AAR (%) Mean: 22^b %
[1]; 2 mg/kg intravenous infusion
  Infarct/AAR (%) Mean: 19.1±7.38%
  Infarct/LV (%) Mean: 7%
[1]; 2 mg/kg intravenous infusion, listed as Comp #6
  Infarct/AAR (%) Mean: 19^b %
[1]; either 0.2 or 2.0 mg/kg IV as an infusion, 30 minute ischemia, vs saline and vehicle controls
  infarct size following ischemia-reperfusion injury, in words: significant decrease in infarct size
[2]; 0.2 mg/kg, within 5-10 minutes of reperfusion
  mean arterial pressures after reperfusion: increased
[2]; 2 mg/kg, approximately 5 minutes following completion of the infusion
  time at which blood pressure reached peak levels post reperfusion: approximately 20 minutes
[2]; 0.2 and 2.0 mg/kg
  heart rate: unaffected
[2]; both dose levels (0.2 and 2.0 mg/kg), returned to levels comparable to vehicle animals after infusion
  blood pressures during infusion: slightly elevated
[3]
  Troponin I (TnI) levels versus saline and vehicle control animals: substantially lower TnI levels than both saline and vehicle control animals; also recorded: substantially lower, but not significantly lower
